According to US20220017489A1, “SOLID DISPERSIONS FOR TREATMENT OF CANCER” (Celgene Corporation, priority 2018, published 2022):
≈ marks a conversion by molar mass, not a printed value. Like-named read-outs stand apart in the source and are kept apart here. Values belong to the compound of their own block, whether it stands above or below them.

Tests used:
[1] = Amorphous solid dispersion screen for Compound 1A: HT-XRPD after accelerated aging conditions (40° C./70% RH, 4 weeks); assay type: physicochemical; conditions: HT-XRPD form after accelerated aging conditions, 4 weeks at 40° C. and 70% RH
Procedure: The plates were mounted on a Bruker General Area Detector Diffraction System (GADDS) equipped with a VÅNTEC-500 gas area detector corrected for intensity and geometric variations. The calibration of the measurement accuracy (peaks position) was performed using NIST SRM1976 standard (Corundum).
No background subtraction or curve smoothing was applied to the XRPD patterns.

[2] = Solubility determination of amorphous solid dispersions of Compound 1A in water, SIF and SGF at 37° C.; assay type: physicochemical
Procedure: For the solubility determination, suspensions of Compound 1A and dispersions were prepared in 3 mL aqueous medium. […] Samples were taken after 0.5, 1 and 2 hours, filtered over a PTFE spin filter and the concentration of Enasidenib in solution was determined by HPLC analysis. In the next sections the solubility results are discussed per aqueous media.
The concentration of API in solution was determined by HPLC analysis after 0.5, 1 and 2 hours.

[3] = Kinetic solubility of Compound 1A in SIF and SGF (DMSO solutions added to medium); assay type: physicochemical; conditions: 80 μL of 60, 30, 15 and 5 mg/mL DMSO solutions added to 4 mL
Procedure: Prior to the solvent shift experiments, the kinetic solubility of Compound 1A was tested in simulated intestinal fluid (SIF) and simulated gastric fluid (SGF) in order to choose the Compound 1A concentration suitable for the solvent shift experiments. Four different Compound 1A solutions (in DMSO) were prepared with concentrations of 60, 30, 15 and 5 mg/mL. Subsequently, 80 μL of these solutions were added to 4 mL of SGF and to 4 mL of SIF.
For the solvent shift experiments in SIF, Compound 1A concentration in DMSO of 5 mg/mL was used.

[4] = Anti-precipitant screening of Compound 1A by solvent shift method in SIF; assay type: physicochemical; conditions: control experiment, crystalline solid, no polymer
Procedure: The anti-precipitant screen by the solvent shift method was used for discovering polymers that can maintain the supersaturated state of Compound 1A in solution. Based on the results of this screen, polymers were selected for the development of the ASD.
The concentration of free base in solution was determined by HPLC analysis.

[5] = 37° C.
[6] = Quantitative (24-hour shake flask) thermodynamic solubility of Compound 1A in organic solvents and water; assay type: physicochemical; conditions: room temperature
Procedure: The solubility of Compound 1A was quantitatively assessed in 10 different organic solvents and water. Slurries were prepared by mixing 30 mg of Compound 1A with an appropriate solvent volume. A stirring bean was added and the suspensions were stirring (500 rpm) at room temperature for 24 hours. An aliquot of the suspension was transferred into a spin filter (nylon, 0.2 μm). The solubility of the filtered solution was determined by HPLC.

[7] = physchem; conditions: thermodynamic from solid
[8] = thermodynamic from solid, Water

XRPD AAC [1]: Form 1
Concentration API ([2]; SGF, 0.5 hours): 20.8 µg/mL
Concentration API ([2]; SGF, 1 hour): 13.0 µg/mL
Concentration API ([2]; SGF, 2 hours): 10.9 µg/mL
Concentration API ([2]; SIF, 0.5 hours): <0.1 µg/mL
Concentration API ([2]; SIF, 1 hour): <0.1 µg/mL
Concentration API ([2]; SIF, 2 hours): <0.1 µg/mL
Concentration API ([2]; Water, 0.5 hours): <0.1 µg/mL
Concentration API ([2]; Water, 1 hour): <0.1 µg/mL
Concentration API ([2]; Water, 2 hours): <0.1 µg/mL
Structure (SMILES): CC(C)(O)CNc1nc(Nc2ccnc(C(F)(F)F)c2)nc(-c2cccc(C(F)(F)F)n2)n1 [ASD102]

Solubility of crystalline Compound 1A in SIF [4]: practically insoluble
Concentration API ([2]; SGF, 0.5 hours): ~80 µg/mL
Concentration API ([2]; SGF, 0.5 hours, listed as SM): 75.8 µg/mL
Concentration API ([2]; SGF, 1 hour): 41.3 µg/mL
Concentration API ([2]; SGF, 2 hours): about 20 μg/mL
Concentration API ([2]; SGF, 2 hours, listed as SM): 19.4 µg/mL
Concentration API ([2]; SIF, 0.5 hours): 0.3 µg/mL
Concentration API ([2]; SIF, 1 hour): <0.1 µg/mL
Concentration API ([2]; SIF, 2 hours): <0.1 µg/mL
Concentration API ([2]; Water, 0.5 hours, listed as SM): 1.0 µg/mL
Concentration API ([2]; Water, 1 hour): 0.4 µg/mL
Concentration API ([2]; Water, 2 hours): <0.1 µg/mL
solubility [2, 8]: ~1 µg/mL (≈ 0.00211 mM)
Concentration API (μg/mL) 0.5 h ([5]; SGF): 21.9 µg/mL
pH 0.5 h ([5]; SGF): 1.24
Concentration API (μg/mL) 1 h ([5]; SGF): 17.2 µg/mL
Concentration API (μg/mL) 2 h ([5]; SGF): 14.6 µg/mL
pH 2 h ([5]; SGF): 1.23
Concentration API (μg/mL) 0.5 h ([5]; SIF): 0.4 µg/mL
pH 0.5 h ([5]; SIF): 6.60
Concentration API (μg/mL) 1 h ([5]; SIF): <0.1 µg/mL
Concentration API (μg/mL) 2 h ([5]; SIF): <0.1 µg/mL
pH 2 h ([5]; SIF): 6.44
Concentration API (μg/mL) 0.5 h ([5]; Water): 0.7 µg/mL
pH 0.5 h ([5]; Water): 2.64
Concentration API (μg/mL) 1 h ([5]; Water): 0.4 µg/mL
Concentration API (μg/mL) 2 h ([5]; Water): 0.3 µg/mL
pH 2 h ([5]; Water): 2.15
solubility ([6]; Water): practically insoluble
solubility at 24 h ([6]; organic solvent or mixture, thermodynamic from solid, 1,4-Dioxane): 69.2 mg/mL (≈ 146 mM)
solubility at 24 h ([6]; organic solvent or mixture, thermodynamic from solid, 2-Propanol): 229 mg/mL (≈ 484 mM)
solubility at 24 h ([6]; organic solvent or mixture, thermodynamic from solid, Acetone): 209 mg/mL (≈ 442 mM)
solubility at 24 h ([6]; organic solvent or mixture, thermodynamic from solid, Acetonitrile): 14.7 mg/mL (≈ 31.1 mM)
solubility at 24 h ([6]; organic solvent or mixture, thermodynamic from solid, Chloroform): 70.6 mg/mL (≈ 149 mM)
solubility at 24 h ([6]; organic solvent or mixture, thermodynamic from solid, Ethanol): > 408 mg/mL
solubility at 24 h ([6]; organic solvent or mixture, thermodynamic from solid, Ethyl acetate): 127 mg/mL (≈ 268 mM)
solubility at 24 h ([6]; organic solvent or mixture, thermodynamic from solid, Methanol): > 463 mg/mL
solubility at 24 h ([6]; organic solvent or mixture, thermodynamic from solid, Tetrahydrofuran): > 429 mg/mL
solubility at 24 h [6, 8]: < 0.1 mg/mL
solubility at 24 h ([7]; 1,4-dioxane, organic solvent or mixture): 400 µg/mL (≈ 0.845 mM)
solubility at 24 h ([7]; 2-propanol, organic solvent or mixture): 1400 µg/mL (≈ 2.96 mM)
solubility at 24 h ([7]; acetone, organic solvent or mixture): 900 µg/mL (≈ 1.9 mM)
solubility at 24 h ([7]; acetonitrile, organic solvent or mixture): 500 µg/mL (≈ 1.06 mM)
solubility at 24 h ([7]; chloroform, organic solvent or mixture): 200 µg/mL (≈ 0.422 mM)
solubility at 24 h ([7]; ethanol, organic solvent or mixture): 7300 µg/mL (≈ 15.4 mM)
solubility at 24 h ([7]; ethyl acetate, organic solvent or mixture): 200 µg/mL (≈ 0.422 mM)
solubility at 24 h ([7]; methanol, organic solvent or mixture): 35600 µg/mL (≈ 75.2 mM)
solubility at 24 h ([7]; tetrahydrofuran, organic solvent or mixture): 1800 µg/mL (≈ 3.8 mM)
solubility at 24 h ([7]; water): < 100 µg/mL
Structure (SMILES): CC(C)(O)CNc1nc(Nc2ccnc(C(F)(F)F)c2)nc(-c2cccc(C(F)(F)F)n2)n1 [Compound 1A, 2-methyl-1-[(4-[6-(trifluoromethyl)pyridin-2-yl]-6-{[2-(trifluoromethyl)pyridin-4-yl]amino}-1,3,5-triazin-2-yl)amino]propan-2-ol]
Kinetic solubility (precipitation) ([3]; SGF): precipitation was observed when using the solution with the highest concentration
Kinetic solubility (precipitation) ([3]; SIF): precipitated using all four concentrations
